# According to patent US6884821B1, “Carboxylic acid derivatives and drugs containing the same” (Eisai Co., Ltd., priority 1999, dated 2005):
# Where two headings read alike, the source gives them in different places.
# Assays:
# male db/db mice = experiment: Measurement of blood sugar reduction, blood triglyceride reduction and blood free fatty acid reduction in db/db mice; conditions: in vivo db/db mice, day 9 after administration, oral once a day
# Protocol: Measurement of Blood Sugar Reduction, Blood Triglyceride Reduction and Blood Free Fatty Acid Reduction
# Blood, was collected through a tail vein after the mice were fasted for 1 hour, before administration, and on Day 4 and Day 9 after administration, respectively. On Day 10, an oral glucose loading test was conducted; in this test, the mice were fasted overnight from the previous day, and in the next morning, 2 g/kg glucose was given to the mice. Plasma glucose, triglycerides (TG), free fatty acid (NEFA) were measured by using commercial kits, that is, Glucose C-II Test Wako (trade name) (Wako Pure Chemical Industries, Ltd., Tokyo), Deteminer L TG II (trade name) (Kyowa Medex, Tokyo) and NEFA C-Test Wako (Wako Pure Chemical Industries, Ltd., Tokyo), respectively.
# human PPARγ = biological target: T1, human PPARγ (Homo sapiens, UniProt P37231); experiment: Measurement of transcriptional activity (GAL4-PPAR LBD chimera, PLAP reporter, CV-1 cells); format: cell-based; conditions: PLAP activity 24 hours after addition of the compound, read-out: Transcriptional activities EC50 PRAR γ
# T1 construct: human PPAR 167-468 (PPARα), 138-440 (NUC-1) and 174-475 (PPARY) amino acid regions; expressed in transfected cells; host or cells: CV-1 (ATCC CCL-70D)
# T1 sequence (P37231 204-505): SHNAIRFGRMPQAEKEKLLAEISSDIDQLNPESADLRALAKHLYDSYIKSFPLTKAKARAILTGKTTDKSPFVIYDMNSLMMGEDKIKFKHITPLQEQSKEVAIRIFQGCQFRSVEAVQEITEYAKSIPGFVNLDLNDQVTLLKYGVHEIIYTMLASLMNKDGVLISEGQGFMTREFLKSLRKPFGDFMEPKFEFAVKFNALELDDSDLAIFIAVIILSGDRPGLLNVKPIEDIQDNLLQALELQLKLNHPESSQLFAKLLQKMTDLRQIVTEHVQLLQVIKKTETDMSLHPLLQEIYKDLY
# Protocol: (§1) Measurement of Transcriptional Activity
# (§2) As the reporter gene, PLAP (Placental Alkaline Phosphatase) was used, and this was ligated downstream of a TK promoter containing a 5-copy GAL4 DNA binding element to construct a vector. As host cells, CV-1 (ATCC CCL-70D) was used. That is, CV-1 cells were spread at a density of 5×10^5 cells on a 35-mm dish and cultured in 10% FCS/DMEM for 24 hours, and using FuGENE 6 transfection reagent, the cells were co-transfected with the GAL4-PPAR LBD expression vector and GAL4 DBD-TK-PLAP expression vector. 24 hours after this transfection, the cells were spread again on a 96-well plate at a density of 1×10^4/well and further cultured for 24 hours. After 24 hours, the medium was exchanged with DMEM containing 10% FCS, which was previously treated at 65° C. for inactivating intrinsic alkaline phosphatase, and a test compound was added at an arbitrary concentration. […] The […] was determined after adding 50 μl assay buffer and 50 μl chemoluminescence substrate to 10 μl culture supernatant and incubating the mixture at room temperature for 1 hour.
# human PPARα = biological target: T2, human PPARα (Homo sapiens, UniProt Q07869); experiment: as above; format: cell-based
# T2 construct: human PPAR 167-468 (PPARα), 138-440 (NUC-1) and 174-475 (PPARY) amino acid regions; expressed in transfected cells; host or cells: CV-1 (ATCC CCL-70D)
# T2 sequence (Q07869 167-468): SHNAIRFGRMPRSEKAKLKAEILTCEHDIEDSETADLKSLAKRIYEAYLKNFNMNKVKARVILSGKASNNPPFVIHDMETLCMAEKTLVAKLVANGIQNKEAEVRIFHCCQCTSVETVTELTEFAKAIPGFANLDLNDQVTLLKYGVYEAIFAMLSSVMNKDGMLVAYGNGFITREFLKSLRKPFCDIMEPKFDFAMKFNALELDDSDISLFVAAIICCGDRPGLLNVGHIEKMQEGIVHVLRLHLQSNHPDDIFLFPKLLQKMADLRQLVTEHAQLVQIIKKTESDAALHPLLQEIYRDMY
# Protocol: as §1, §2
# human PPARβ (NUC-1) = biological target: T3, human PPARβ (NUC-1) (Homo sapiens, UniProt Q03181); experiment: as above; format: cell-based
# T3 construct: human PPAR 167-468 (PPARα), 138-440 (NUC-1) and 174-475 (PPARY) amino acid regions; expressed in transfected cells; host or cells: CV-1 (ATCC CCL-70D)
# T3 sequence (Q03181 138-440): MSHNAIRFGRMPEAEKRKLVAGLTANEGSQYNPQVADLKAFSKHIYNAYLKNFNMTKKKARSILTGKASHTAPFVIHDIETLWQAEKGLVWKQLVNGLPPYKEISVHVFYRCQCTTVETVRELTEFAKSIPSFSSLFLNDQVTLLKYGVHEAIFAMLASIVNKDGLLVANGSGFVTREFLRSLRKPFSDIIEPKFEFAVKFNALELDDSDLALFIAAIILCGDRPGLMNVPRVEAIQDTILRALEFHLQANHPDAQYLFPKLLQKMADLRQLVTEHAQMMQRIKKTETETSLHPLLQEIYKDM
# Protocol: as §1, §2
# [1] = CV-1 cells, GAL4-PPAR LBD chimera, PLAP activity 24 hours after addition of the compound, read-out: Transcriptional activities EC50 PRAR α
# [2] = CV-1 cells, GAL4-PPAR LBD chimera, PLAP activity 24 hours after addition of the compound, read-out: Transcriptional activities EC50 PRAR β
EC50 (human PPARγ),EC50 (human PPARα; [1]),EC50 (human PPARβ (NUC-1); [2]),Structure (SMILES),Blood free fatty acid reduction (%) (male db/db mice; 30 mg/kg/day),Blood sugar reduction (%) (male db/db mice; 30 mg/kg/day),Blood triglycerides reduction (%) (male db/db mice; 30 mg/kg/day),EC50 (human PPARα),EC50 (human PPARβ (NUC-1)),Blood free fatty acid reduction (%) (male db/db mice; 1 mg/kg/day (*)),Blood sugar reduction (%) (male db/db mice; 1 mg/kg/day (*)),Blood triglycerides reduction (%) (male db/db mice; 1 mg/kg/day (*))
382 nM,80 nM,2510 nM,"COc1ccc(CC(OC(C)C)C(=O)O)cc1C(=O)NCc1ccc(C(F)(F)F)cc1 (centres unmarked) [Example 2d), 2-Isopropoxy-3-(4-methoxy-3-({[4-(trifluoromethyl)benzyl]amino}carbonyl)phenyl)propanoic acid]",46.7%,44.6%,71.6%,,,,,
,,,"CCC(Cc1ccc(OC)c(C(=O)NCc2ccc(C(F)(F)F)cc2)c1)C(=O)O (centres unmarked) [Example 5d), 2-[4-Methoxy-3-({[4-(trifluoromethyl)benzyl]amino}carbonyl)benzyl)butanoic acid]",65.5%,53.6%,58.8%,394 nM,789 nM,,,
746 nM,701 nM,> 30000 nM,"CCCOC(Cc1ccc(OC)c(C(=O)NCc2ccc(C(F)(F)F)cc2)c1)C(=O)O (centres unmarked) [Example 9d), 3-[4-methoxy-3-({[4-(trifluoromethyl)benzyl]amino}carbonyl)phenyl]-2-propoxypropanoic acid]",62.9%,46.1%,80.4%,,,,,
> 10000 nM,162 nM,8050 nM,"CCC(Cc1ccc(OC)c(NC(=O)Cc2ccc(C(F)(F)F)c(F)c2)c1)C(=O)O (centres unmarked) [Example 18d), 2-(4-Methoxy-3-{[2-(3-fluoro-4-trifluoromethylphenyl)acetyl]amino}benzyl)butanoic acid]",,,,,,,,
47 nM,12 nM,37 nM,"COc1ccc(C[C@H](OC(C)C)C(=O)O)cc1CNC(=O)c1ccc(C(F)(F)F)cc1F [Example 36g), (2S)-3-[3-([2-fluoro-4-(trifluoromethyl)benzoyl]aminomethyl)-4-methoxyphenyl]-2-isopropoxypropanoic acid]",,,,,,54.0%,51.5%,55.2%
16 nM,28 nM,432 nM,"COc1ccc(C[C@H](OC(C)C)C(=O)O)cc1CNC(=O)c1ccc(Cl)cc1Cl [Example 37e), (2S)-3-[3-([2,4-dichlorobenzoyl]aminomethyl)-4-methoxyphenyl]-2-isopropoxypropanoic acid]",,,,,,70.2%,48.1%,68.3%

Structure (SMILES),EC50 (human PPARγ),EC50 (human PPARα; [1]),EC50 (human PPARβ (NUC-1); [2]),Blood free fatty acid reduction (%) (male db/db mice; 30 mg/kg/day),Blood sugar reduction (%) (male db/db mice; 30 mg/kg/day),Blood triglycerides reduction (%) (male db/db mice; 30 mg/kg/day),EC50 (human PPARα),EC50 (human PPARβ (NUC-1)),Blood free fatty acid reduction (%) (male db/db mice; 1 mg/kg/day (*)),Blood sugar reduction (%) (male db/db mice; 1 mg/kg/day (*)),Blood triglycerides reduction (%) (male db/db mice; 1 mg/kg/day (*))
"COc1ccc(CC(OC(C)(C)C)C(=O)O)cc1C(=O)NCc1ccc(C(F)(F)F)cc1 (centres unmarked) [Example 3d), 2-tert-Butoxy-3-(4-methoxy-3-({[4-(trifluoromethyl)benzyl]amino}carbonyl)phenyl)propanoic acid]",217 nM,87 nM,5070 nM,47%,27.5%,63.8%,,,,,
